Values quoted from earlier work as cited in patent US20170216273A1, “Nicotine Derivatives and Methods of Use” (priority 2014, published 2017).

Settings: approximately; no test described

| Compound | potency relative to the L isomer |
| --- | --- |
| CN1CCC[C@H]1c1cccnc1 (racemic) [Racemic nicotine] | 70-80 % of the L isomer's potency |
| CN1CCC[C@@H]1c1cccnc1 (single isomer, unassigned) [D isomer of nicotine, D-nicotine] | 25-30 % of the L isomer's potency |
